Data as given in patent US20230310542A1, “EPIGENETIC MODIFIERS TO TREAT RETINAL DEGENERATIONS” (priority 2022, published 2023).

How the values were obtained:
rd10 mice = assay: Rod photoreceptor preservation in rd10 mice (photoreceptor rows in ONL, immunofluorescence); assay type: in vivo, mouse
Experimental: (§1) All inhibitors were diluted in 0.9% bacteriostatic sodium chloride (saline).
(§2) Retinas were fixed in 4% paraformaldehyde overnight at 4° C., washed in PBS, incubated in 5% sucrose/PBS for 30 min and then cryopreserved in 20% sucrose/PBS overnight at 4° C. Retinas were embedded in 2:1 mix of 20% sucrose and OCT (Sakura Finetek Torrance, CA) and stored at −80° C. Blocks with tissue samples were sectioned to 7-10 μm on a Cryostat Microtome HM550 (Thermo Fisher Scientific) and stored at −20° C. Antigen retrieval was performed by incubating the slides in 10 mM sodium citrate pH 6 for 30 min at 80° C. Double labeling immunohistochemistry was performed using fluorescent Alexa Fluor-conjugated secondary antibodies diluted 1:800 (Invitrogen, Carlsbad, California). Primary antibodies were diluted as follow: anti-H3K4me2 1:600, anti-H3K9me2 1:600, anti-RHO 1:50, anti-OPN1SW 1:400, anti-GFAP 1:1000, anti-IBA1 1:450 (AifI gene). […] The acquisition parameters were maintained constant for each set of experiments. Fluorescence intensity was assessed using ImageJ software (Bethesda, MD).

rd10 mice retina = assay: RT-PCR retinal gene expression, rd10 mice; assay type: in vivo, mouse
Experimental: (§3) Whole retinas were isolated from animals by removing the sclera and most of the retinal pigmented epithelium (RPE) layer under PBS. The right eye retinas from each animal were taken for RNA extraction, cDNA preparation and RT-PCR. Immediately after isolation, tissue was flash frozen in liquid nitrogen and stored at −80° C. Left eye retinas from each animal were subjected to fixation, cryopreservation, sectioning, and immunofluorescence staining. RNA extraction and purification followed the manufacturer's protocol from RNeasy Mini Kit and RNA shredder (Qiagen). […] Primers purchased from Integrated DNA Technologies (IDT). For quantitative real-time PCR we used 2× iQ-SYBR Green PCR supermix from Bio-Rad. Samples in triplicate were run on an iQ5 Multicolor Real Time PCR Detection System (Bio-Rad). The relative expression level for each gene was calculated by the 2-ΔΔCt method and normalized to GAPDH.

WT mice retina = assay: RT-PCR retinal gene expression, WT mice; assay type: in vivo, mouse
Experimental: as §3

rod nuclei = details: WT + TCP, PN24
Experimental: as §2
The number of heterochromatin foci in rod nuclei was calculated to estimate the level of rod photoreceptor maturation in retinas of animals treated with LSD1 inhibitors (FIG. 10B).

H3K4me2, H3K9me2 = assay: Anti-H3K4me2 and anti-H3K9me2 Western blot of WT retina; assay type: in vivo, mouse; details: WT mice treated PN9 till PN24
Experimental: Both retinas from one animal were flash frozen together in liquid nitrogen and stored at −80° C. Samples for SDS-PAGE were prepared by resuspended retinas in 50 μl PBS. Laemmli sample buffer was added, samples were boiled for 10 min, resolved on Criterion TGX Precast Gel AnyKD (Bio-Rad), transferred to nitrocellulose membrane, and immunoblotted with antibodies anti-H3K9me2 or anti-H3K4me2 diluted 1:5000; anti-ACTB diluted 1:10000; anti-PDE6B (1:500). Secondary goat anti-rabbit/mouse HRP (Jackson Immuno-Research Laboratory, West Grove, PA) was diluted 1:5000. An ECL western blot detection system (Thermo Fisher Scientific) was used to visualize the bound of the primary antibody.

rd10 = details: TCP PN9 till PN24
Experimental: Retinas were fixed in 4% paraformaldehyde overnight at 4° C., washed in PBS, incubated in 5% sucrose/PBS for 30 min and then cryopreserved in 20% sucrose/PBS overnight at 4° C. Retinas were embedded in 2:1 mix of 20% sucrose and OCT (Sakura Finetek Torrance, CA) and stored at −80° C. Blocks with tissue samples were sectioned to 7-10 μm on a Cryostat Microtome HM550 (Thermo Fisher Scientific) and stored at −20° C. TUNEL assay was carried out using the In situ Cell death detection kit, Fluorescein from Roche (Germany) according to manufacturer's instruction.

GFAP, IBA1 = assay: Immunofluorescence labeling of GFAP and IBA1 in retina sections; assay type: in vivo, mouse; details: rd10, treated PN9 till PN24; levels remained above WT
Experimental: Fluorescence intensity was assessed using ImageJ software (Bethesda, MD).

WT mice = details: TCP PN9 till PN24
Experimental: as §1, §2

rd1 mice = details: previous studies; cited from earlier work
RGC = details: previous study; cited from earlier work
RP = details: previous studies, cited from earlier work; for protective effect on RP: non-selective HDAC inhibitors

## N[C@@H]1C[C@H]1c1ccccc1 (relative stereo) [TCP, trans-2-Phenylcyclopropylamine]
rd10 mice; TCP 10 mg/kg i.p. daily PN9 till PN24
  rows of photoreceptors remaining in the ONL at PN24: 7 rows
rd10 mice retina; treated PN9 till PN24, assayed PN24, vs saline
  expression of rod photoreceptor genes relative to GAPDH: increased expression of almost all rod genes
rd10 mice retina; treated PN9 till PN24 vs saline
  expression of cone genes Thrb or Gnat2: slightly up-regulated
WT mice retina; WT mice treated PN9 till PN24
  expression of rod photoreceptor genes: no changes
WT mice retina; WT retinas, treated PN9 till PN24
  expression of transcription factors of retina development and maturation: slightly increased expression
Rod nuclei; WT saline 2%
  rod nuclei with 3 foci: 7%
Rod nuclei; WT saline 43%
  rod nuclei with two foci: 51%
Rod nuclei; WT saline 55%
  rod nuclei with one focus: 42%
H3K4me2, H3K9me2
  global levels of H3K4me2: did not change significantly
  global levels of H3K9me2: No changes
rd10
  dying cells by TUNEL staining vs control: no significant difference
GFAP, IBA1
  IBA1 labeling (microglia): decreased
WT mice
  ONL thickness: significantly increased
  number of rows of rods: did not change

## Nc1nccc2c1ncn2[C@@H]1C=C(CO)[C@@H](O)[C@H]1O [DZNep, 3-deazaneplanocin A]
rd1 mice
  retinal degeneration / photoreceptor loss in rd1 mouse: delays in retinal degeneration

## Nc1cc(F)ccc1NC(=O)/C=C/c1cnn(C/C=C/c2ccccc2)c1 [RGFP966]
RGC
  RGC death: protected against RGC death

## CC(/C=C/C(=O)NO)=C\[C@@H](C)C(=O)c1ccc(N(C)C)cc1 [TSA]
RP
  protective effect on RP: some protective effect

## CCCC(CCC)C(=O)O [VPA]
RP
  protective effect on RP: some protective effect
  outcome as therapeutic agent for retinal degeneration: mixed results

## C/C=C1\NC(=O)[C@H]2CSSCC/C=C/[C@H](CC(=O)N[C@H](C(C)C)C(=O)N2)OC(=O)[C@H](C(C)C)NC1=O [romidepsin]
rd10 mice; romidepsin 0.2 mg/kg i.p. daily PN9 till PN24, saline control 2-3 rows
  rows of photoreceptor remaining in the ONL at PN24: 8 rows

## CCCC(=O)[O-].[Na+] [sodium butyrate]
RP
  protective effect on RP: some protective effect
